# Source: PubChem BioAssay AID1963871 (Molecular Pharmacology Branch, DTP, NCI, 2024)
# System: KRAS-mutant PDC multicell tumor spheroid viability
# Experiment: Anticancer human tumor 521955-158-R2-J5-PDC patient-derived pancreatic carcinoma cell line growth inhibition [KRAS2]
# Details: for IC50: curve of first compound; for viability, T/C: stronger effect = lower value
# In short: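 KRAS-mutant tumor cells were grown as spheroids with HUVEC endothelial cells and human MSCs as stroma. Targeted agents were tested alone and with KRAS pathway inhibitors. Doses started at or near clinical Cmax, or 10 microM, descending half-log.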
# [1] = second compound 0.1 µM, first compound 0.000316 µM
# [2] = second compound 0.1 µM, first compound 0.001 µM
# [3] = second compound 0.1 µM, first compound 0.00316 µM
# [4] = second compound 0.1 µM, first compound 0.01 µM
# [5] = second compound 0.1 µM, first compound 0.0316 µM
# [6] = second compound 0.316 µM, first compound 0.000316 µM
# [7] = second compound 0.316 µM, first compound 0.001 µM
# [8] = second compound 0.316 µM, first compound 0.00316 µM
# [9] = second compound 0.316 µM, first compound 0.01 µM
# [10] = second compound 0.316 µM, first compound 0.0316 µM
# [11] = second compound 1 µM, first compound 0.000316 µM
# [12] = second compound 1 µM, first compound 0.001 µM
# [13] = second compound 1 µM, first compound 0.00316 µM
# [14] = second compound 1 µM, first compound 0.01 µM
# [15] = second compound 1 µM, first compound 0.0316 µM
# [16] = second compound 3.16 µM, first compound 0.000316 µM
# [17] = second compound 3.16 µM, first compound 0.001 µM
# [18] = second compound 3.16 µM, first compound 0.00316 µM
# [19] = second compound 3.16 µM, first compound 0.01 µM
# [20] = second compound 3.16 µM, first compound 0.0316 µM
# [21] = second compound 10 µM, first compound 0.000316 µM
# [22] = second compound 10 µM, first compound 0.001 µM
# [23] = second compound 10 µM, first compound 0.00316 µM
# [24] = second compound 10 µM, first compound 0.01 µM
# [25] = second compound 10 µM, first compound 0.0316 µM
# [26] = second compound 0.1 µM, first compound 0.1 µM
# [27] = second compound 0.316 µM, first compound 0.1 µM
# [28] = second compound 1 µM, first compound 0.1 µM
# [29] = second compound 3.16 µM, first compound 0.1 µM
# [30] = second compound 10 µM, first compound 0.1 µM
# 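Also: viability read after seven days of drug exposure.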
smiles,measurement,setting,value
CC(=O)Nc1cccc(-n2c(=O)n(C3CC3)c(=O)c3c(Nc4ccc(I)cc4F)n(C)c(=O)c(C)c32)c1 + CC1OCC2(CCN(c3cnc(Sc4ccnc(N)c4Cl)c(N)n3)CC2)C1N,IC50,second compound 0.1 µM,0.146 nM
same,IC50,second compound 0.316 µM,< 0.1 nM
same,IC50,second compound 1 µM,< 0.1 nM
same,IC50,second compound 3.16 µM,< 0.1 nM
same,IC50,second compound 10 µM,< 0.1 nM
same,"viability, T/C","second compound 0.1 µM, first compound 0.0001 µM",59%
same,"viability, T/C",[1],29.4%
same,"viability, T/C",[2],29.3%
same,"viability, T/C",[3],25.3%
same,"viability, T/C",[4],21.4%
same,"viability, T/C",[5],13.1%
same,"viability, T/C","second compound 0.316 µM, first compound 0.0001 µM",44.9%
same,"viability, T/C",[6],32.9%
same,"viability, T/C",[7],25.4%
same,"viability, T/C",[8],22.7%
same,"viability, T/C",[9],18.1%
same,"viability, T/C",[10],12.4%
same,"viability, T/C","second compound 1 µM, first compound 0.0001 µM",40.3%
same,"viability, T/C",[11],35.8%
same,"viability, T/C",[12],26.9%
same,"viability, T/C",[13],24.2%
same,"viability, T/C",[14],16.8%
same,"viability, T/C",[15],9.6%
same,"viability, T/C","second compound 3.16 µM, first compound 0.0001 µM",40.9%
same,"viability, T/C",[16],32.5%
same,"viability, T/C",[17],25.2%
same,"viability, T/C",[18],21.1%
same,"viability, T/C",[19],15.3%
same,"viability, T/C",[20],12.7%
same,"viability, T/C","second compound 10 µM, first compound 0.0001 µM",39.9%
same,"viability, T/C",[21],34%
same,"viability, T/C",[22],23.3%
same,"viability, T/C",[23],18.5%
same,"viability, T/C",[24],15.1%
same,"viability, T/C",[25],11.6%
CC(C)n1nc(-c2ccc3oc(N)nc3c2)c2c(N)ncnc21 + CC1OCC2(CCN(c3cnc(Sc4ccnc(N)c4Cl)c(N)n3)CC2)C1N,IC50,second compound 0.1 µM,6.21 nM
same,IC50,second compound 0.316 µM,3.52 nM
same,IC50,second compound 1 µM,0.359 nM
same,IC50,second compound 3.16 µM,< 0.316 nM
same,IC50,second compound 10 µM,< 0.316 nM
same,"viability, T/C",[1],71.5%
same,"viability, T/C",[2],71.4%
same,"viability, T/C",[3],56.5%
same,"viability, T/C",[4],44.2%
same,"viability, T/C",[5],32.8%
same,"viability, T/C",[26],24.6%
same,"viability, T/C",[6],59.1%
same,"viability, T/C",[7],57.7%
same,"viability, T/C",[8],51.2%
same,"viability, T/C",[9],39.5%
same,"viability, T/C",[10],31.2%
same,"viability, T/C",[27],25.2%
same,"viability, T/C",[11],48.9%
same,"viability, T/C",[12],50.8%
same,"viability, T/C",[13],45%
same,"viability, T/C",[14],36.9%
same,"viability, T/C",[15],28.1%
same,"viability, T/C",[28],21.6%
same,"viability, T/C",[16],47.5%
same,"viability, T/C",[17],50.8%
same,"viability, T/C",[18],37.8%
same,"viability, T/C",[19],29.4%
same,"viability, T/C",[20],23.4%
same,"viability, T/C",[29],19.3%
same,"viability, T/C",[21],47.7%
same,"viability, T/C",[22],50.1%
same,"viability, T/C",[23],41.2%
same,"viability, T/C",[24],28.4%
same,"viability, T/C",[25],24.6%
same,"viability, T/C",[30],19.6%
CC1(C)CCC(CN2CCN(c3ccc(C(=O)NS(=O)(=O)c4ccc(NCC5CCOCC5)c([N+](=O)[O-])c4)c(Oc4cnc5[nH]ccc5c4)c3)CC2)=C(c2ccc(Cl)cc2)C1 + CC1OCC2(CCN(c3cnc(Sc4ccnc(N)c4Cl)c(N)n3)CC2)C1N,IC50,second compound 0.1 µM,5300 nM
same,IC50,second compound 0.316 µM,4270 nM
same,IC50,second compound 1 µM,1370 nM
same,IC50,second compound 3.16 µM,< 31.6 nM
same,IC50,second compound 10 µM,< 31.6 nM
same,"viability, T/C",[5],70.5%
same,"viability, T/C",[26],75.5%
same,"viability, T/C","second compound 0.1 µM, first compound 0.316 µM",74%
same,"viability, T/C","second compound 0.1 µM, first compound 1 µM",81.3%
same,"viability, T/C","second compound 0.1 µM, first compound 3.16 µM",89.9%
same,"viability, T/C","second compound 0.1 µM, first compound 10 µM",15.3%
same,"viability, T/C",[10],62.2%
same,"viability, T/C",[27],71.7%
same,"viability, T/C","second compound 0.316 µM, first compound 0.316 µM",51.1%
same,"viability, T/C","second compound 0.316 µM, first compound 1 µM",63.5%
same,"viability, T/C","second compound 0.316 µM, first compound 3.16 µM",69.2%
same,"viability, T/C","second compound 0.316 µM, first compound 10 µM",11.9%
same,"viability, T/C",[15],53.5%
same,"viability, T/C",[28],51.5%
same,"viability, T/C","second compound 1 µM, first compound 0.316 µM",54.1%
same,"viability, T/C","second compound 1 µM, first compound 1 µM",50.3%
same,"viability, T/C","second compound 1 µM, first compound 3.16 µM",45.7%
same,"viability, T/C","second compound 1 µM, first compound 10 µM",8.54%
same,"viability, T/C",[20],48.1%
same,"viability, T/C",[29],41.3%
same,"viability, T/C","second compound 3.16 µM, first compound 0.316 µM",35.1%
same,"viability, T/C","second compound 3.16 µM, first compound 1 µM",41.4%
same,"viability, T/C","second compound 3.16 µM, first compound 3.16 µM",46.7%
same,"viability, T/C","second compound 3.16 µM, first compound 10 µM",8.81%
same,"viability, T/C",[25],40.3%
same,"viability, T/C",[30],47.5%
same,"viability, T/C","second compound 10 µM, first compound 0.316 µM",37.2%
same,"viability, T/C","second compound 10 µM, first compound 1 µM",40.5%
same,"viability, T/C","second compound 10 µM, first compound 3.16 µM",17.1%
same,"viability, T/C","second compound 10 µM, first compound 10 µM",1.93%
